Experimental data from patent US10221129B2, “Inhibitors of human immunodeficiency virus replication” (ViiV HEALTHCARE UK (NO.5) LIMITED, priority 2015, dated 2019).
pEC50: −log10 of the molar value.

How the values were obtained:
[1] = test system: recombinant NL4-3 virus (nef section replaced with Renilla luciferase gene) in MT-2 cells; assay: HIV cell culture assay (antiviral activity, luciferase readout); assay type: cell-based; conditions: Renilla, NL43, MT-2 cells infected for 4-5 days with recombinant NL4-3 Renilla luciferase virus
Protocol: HIV cell culture assay—MT-2 cells, 293T cells and the proviral DNA clone of NL4-3 virus were obtained from the NIH AIDS Research and Reference Reagent Program. MT-2 cells were propagated in RPMI 1640 media supplemented with 10% heat inactivated fetal bovine serum (FBS), 100 jag/ml penicillin G and up to 100 units/mL streptomycin. The 293T cells were propagated in DMEM media supplemented with 10% heat inactivated FBS, 100 μg/mL penicillin G and 100 μg/mL streptomycin. A recombinant NL4-3 proviral clone, in which a section of the nef gene was replaced with the Renilla luciferase gene, was used to make the reference virus used in these studies. The recombinant virus was prepared through transfection of the recombinant NL4-3 proviral clone into 293T cells using Transit-293 Transfection Reagent from Mirus Bio LLC (Madison, Wis.). Supernatant was harvested after 2-3 days and the amount of virus present was titered in MT-2 cells using luciferase enzyme activity as a marker by measuring luciferase enzyme activity. Luciferase was quantitated using the EnduRen Live Cell Substrate from Promega (Madison, Wis.). Antiviral activities of compounds toward the recombinant virus were quantified by measuring luciferase activity in MT-2 cells infected for 4-5 days with the recombinant virus in the presence of serial dilutions of the compound.
(Johnson V A, Byington R T. Infectivity Assay. In Techniques in HIV Research. ed. Aldovini A, Walker B D. 71-76. New York: Stockton Press. 1990).

[2] = Compound cytotoxicity, XTT-based colorimetric assay; assay type: cell-based; conditions: human, uninfected MT2 cells, day 4, XTT
Protocol: Compound cytotoxicity and the corresponding CC50 values were determined using the same protocol as described in the antiviral assay except that uninfected cells were used. Cytotoxicity was assessed on day 4 in uninfected MT2 cells by using a XTT (2,3-bis[2-Methoxy-4-nitro-5-sulfophenyl]-2H-tetrazolium-5-carboxyanilide inner salt)-based colorimetric assay (Sigma-Aldrich, St Louis, Mo.).

COc1ccc(N(C)C(=O)[C@H](Cc2ccccc2)NC(=O)NS(=O)(=O)Nc2ccc(C(F)(F)F)cc2)cc1 [CA-28]
pEC50 [1]: 7.30 | CC50 at 4 days [2]: > 100 µM

COc1ccc(N(C)C(=O)[C@H](Cc2ccccc2)NC(=O)NS(=O)(=O)Nc2ccc(-c3ccccc3)cc2)cc1 [CA-29]
pEC50 [1]: 5.49 | CC50 at 4 days [2]: > 33.3 µM

COc1ccc(N(C)C(=O)[C@H](Cc2ccccc2)NC(=O)NS(=O)(=O)Nc2cccc(Cl)c2Cl)cc1 [CA-30]
pEC50 [1]: 7.10 | CC50 at 4 days [2]: > 100 µM

COc1ccc(N(C)C(=O)[C@H](Cc2ccccc2)NC(=O)NS(=O)(=O)Nc2ccccc2-c2ccccc2)cc1 [CA-31]
pEC50 [1]: 5.93 | CC50 at 4 days [2]: > 33.3 µM

COc1ccc(N(C)C(=O)[C@H](Cc2ccccc2)NC(=O)NS(=O)(=O)Nc2ccc(OCc3ccccc3)cc2)cc1 [CA-32]
pEC50 [1]: 6.01 | CC50 at 4 days [2]: > 33.3 µM

COc1ccc(N(C)C(=O)[C@H](Cc2ccccc2)NC(=O)NS(=O)(=O)Nc2ccccc2Oc2ccccc2)cc1 [CA-33]
pEC50 [1]: 5.69 | CC50 at 4 days [2]: > 33.3 µM

COc1ccc(N(C)C(=O)[C@H](Cc2ccccc2)NC(=O)NS(=O)(=O)Nc2ccc(OC(F)(F)F)cc2)cc1 [CA-34]
pEC50 [1]: 6.74 | CC50 at 4 days [2]: > 33.3 µM

COc1ccc(N(C)C(=O)[C@H](Cc2ccccc2)NC(=O)NS(=O)(=O)Nc2cccc(OC(F)(F)F)c2)cc1 [CA-35]
pEC50 [1]: 6.42 | CC50 at 4 days [2]: 30.3 µM

COc1ccc(N(C)C(=O)[C@H](Cc2ccccc2)NC(=O)NS(=O)(=O)Nc2cccc(Oc3ccccc3)c2)cc1 [CA-36]
pEC50 [1]: 6.70 | CC50 at 4 days [2]: > 33.3 µM

COc1ccc(N(C)C(=O)[C@H](Cc2ccccc2)NC(=O)NS(=O)(=O)Nc2cccc(-c3ccccc3)c2)cc1 [CA-37]
pEC50 [1]: 5.92 | CC50 at 4 days [2]: > 33.3 µM

COc1ccc(N(C)C(=O)[C@H](Cc2ccccc2)NC(=O)NS(=O)(=O)Nc2ccc(-c3cnco3)cc2)cc1 [CA-38]
pEC50 [1]: 6.60 | CC50 at 4 days [2]: > 100 µM

COc1ccc(N(C)C(=O)[C@H](Cc2ccccc2)NC(=O)NS(=O)(=O)Nc2ccc(Cc3ccncc3)cc2)cc1 [CA-39]
pEC50 [1]: 6.48 | CC50 at 4 days [2]: > 100 µM

COc1ccc(N(C)C(=O)[C@H](Cc2ccccc2)NC(=O)NS(=O)(=O)Nc2ccc(OC(C)C)cc2)cc1 [CA-40]
pEC50 [1]: 6.66 | CC50 at 4 days [2]: > 100 µM

COc1ccc(N(C)C(=O)[C@H](Cc2ccccc2)NC(=O)NS(=O)(=O)Nc2cccc(C(C)(C)C)c2)cc1 [CA-41]
pEC50 [1]: 6.59 | CC50 at 4 days [2]: > 33.3 µM

COc1ccc(N(C)C(=O)[C@H](Cc2ccccc2)NC(=O)NS(=O)(=O)Nc2ccccc2NC(C)=O)cc1 [CA-42]
pEC50 [1]: 5.39 | CC50 at 4 days [2]: > 100 µM

COc1ccc(N(C)C(=O)[C@H](Cc2ccccc2)NC(=O)NS(=O)(=O)Nc2ccc(S(=O)(=O)N3CCCC3)cc2)cc1 [CA-43]
pEC50 [1]: 6.52 | CC50 at 4 days [2]: > 100 µM

COc1ccc(N(C)C(=O)[C@H](Cc2ccccc2)NC(=O)NS(=O)(=O)Nc2ccc(S(=O)(=O)N3CCOCC3)cc2)cc1 [CA-44]
pEC50 [1]: 6.21 | CC50 at 4 days [2]: > 100 µM

COc1ccc(N(C)C(=O)[C@H](Cc2ccccc2)NC(=O)NS(=O)(=O)Nc2ccc(-n3cccc3)cc2)cc1 [CA-45]
pEC50 [1]: 6.28 | CC50 at 4 days [2]: > 33.3 µM

COc1ccc(N(C)C(=O)[C@H](Cc2ccccc2)NC(=O)NS(=O)(=O)Nc2cccc(NS(C)(=O)=O)c2)cc1 [CA-46]
pEC50 [1]: 4.94 | CC50 at 4 days [2]: > 100 µM

COc1ccc(N(C)C(=O)[C@H](Cc2ccccc2)NC(=O)NS(=O)(=O)Nc2cccc(S(=O)(=O)N3CCOCC3)c2)cc1 [CA-47]
pEC50 [1]: 5.67 | CC50 at 4 days [2]: > 100 µM

COc1ccc(N(C)C(=O)[C@H](Cc2ccccc2)NC(=O)NS(=O)(=O)Nc2ccc3c(c2)CS(=O)(=O)C3)cc1 [CA-48]
pEC50 [1]: 6.59 | CC50 at 4 days [2]: > 100 µM

COc1ccc(N(C)C(=O)[C@H](Cc2ccccc2)NC(=O)NS(=O)(=O)Nc2cc(Cl)cc(Cl)c2)cc1 [CA-49]
pEC50 [1]: 6.74 | CC50 at 4 days [2]: > 33.3 µM

COc1ccc(N(C)C(=O)[C@H](Cc2ccccc2)NC(=O)NS(=O)(=O)Nc2ccc(Cl)cc2Cl)cc1 [CA-50]
pEC50 [1]: 6.96 | CC50 at 4 days [2]: > 100 µM

COc1ccc(N(C)C(=O)[C@H](Cc2ccccc2)NC(=O)NS(=O)(=O)NCC(=O)N2CCCC2)cc1 [CA-51]
pEC50 [1]: 5.34 | CC50 at 4 days [2]: > 100 µM

COc1ccc(N(C)C(=O)[C@H](Cc2ccccc2)NC(=O)NS(=O)(=O)NCC(=O)N(C)C)cc1 [CA-52]
pEC50 [1]: 6.04 | CC50 at 4 days [2]: > 100 µM

COc1ccc(N(C)C(=O)[C@H](Cc2ccccc2)NC(=O)NS(=O)(=O)N2CCc3cc(OC)cc(C)c32)cc1 [CA-56]
pEC50 [1]: 5.88 | CC50 at 4 days [2]: > 100 µM
